Measured values from US10752637B2, “Bis-diox(ol)ane compounds” (Koninklijke Coöperatie Cosun U.A., priority 2016, dated 2020).
In brackets after ≈: the same amount, converted by molar mass.

Experiment: water-solubility of the product

- water-solubility (in water, at ambient temperature): approximately 25 wt. %
- solubility (water): ~350 mg/mL (≈ 930 mM)
Structure (SMILES): CC1(C)OC(C2OC(C)(C)O[C@H]2C(=O)NCCO)[C@@H](C(=O)NCCO)O1 (some centres unmarked) [GalX-di-ethanolamide]
